In patent US11007183B2, “Cancer treatments using combinations of PI3K/Akt pathway and ERK inhibitors” (BIOMED VALLEY DISCOVERIES, INC., priority 2013, dated 2021):
Several values for one entry are separate records, joined by “and”; a condition that tells them apart may be missing. Equal values may be shown once.

Columns and labels:
HCT116 PIK3CA (+/−) = test: Single agent proliferation assay (CellTiter-Glo, 72 h); type: cell-based, human
Protocol: Cells were seeded in 96-well plates at the densities and media conditions indicated in Table 11 in McCoy's 5A containing either 10% FBS or 1% charcoal-stripped FBS (CS-FBS), and allowed to adhere overnight prior to addition of compound or vehicle control. […] The final DMSO concentration was constant at 0.1%. Test compounds were incubated with the cells for 72 h at 37° C., 5% CO2 in a humidified atmosphere. CellTiter-Glo® reagent (Promega, Madison, Wis.) was added according to manufacturer's instructions and luminescence detected using the BMG FLUOstar plate reader (BMG Labtech, Ortenberg, Germany). The average media only background value was deducted and the data analysed using a 4-parameter logistic equation in GraphPad Prism (GraphPad Software, La Jolla, Calif.).

HCT116 Parental = test: as above; type: cell-based, human
Protocol: Cells were seeded in 96-well plates at the densities and media conditions indicated in Table 11 in McCoy's 5A containing either 10% FBS or 1% charcoal-stripped FBS (CS-FBS), and allowed to adhere overnight prior to addition of compound or vehicle control. Compounds were prepared from DMSO stocks to give the desired final concentrations. The final DMSO concentration was constant at 0.1%. Test compounds were incubated with the cells for 72 h at 37° C., 5% CO2 in a humidified atmosphere. CellTiter-Glo® reagent (Promega, Madison, Wis.) was added according to manufacturer's instructions and luminescence detected using the BMG FLUOstar plate reader (BMG Labtech, Ortenberg, Germany). The average media only background value was deducted and the data analysed using a 4-parameter logistic equation in GraphPad Prism (GraphPad Software, La Jolla, Calif.).

[1] = Toxicity (body weight, deaths, clinical signs) in the HCT116 xenograft study; type: in vivo, mice; details: Group 10: Paclitaxel 30 mg/kg iv qod x 5
Protocol: Animals were weighed daily on Days 1-5, then twice per week until completion of the study. The mice were observed frequently for overt signs of any adverse, TR side effects, and clinical signs were recorded when observed. Individual BW loss was monitored as per protocol, and any animal whose weight exceeded the limits for acceptable BW loss was euthanized. Group mean BW loss also was monitored as per protocol. Dosing was to be suspended in any group that exceeded the limits for acceptable mean BW loss. If mean BW recovered, then dosing was to be resumed in that group, but at a lower dosage or less frequent dosing schedule. Acceptable toxicity for the maximum tolerated dose (MTD) was defined as a group mean BW loss of less than 20% during the study and not more than 10% TR deaths. A death was classified as TR if attributable to treatment side effects as evidenced by clinical signs and/or necropsy, or may also be classified as TR if due to unknown causes during the dosing period or within 14 days of the last dose. A death was classified as NTR if there was no evidence that death was related to treatment side effects. NTR deaths may be further characterized based on cause of death. A death was classified as NTRa if it resulted from an accident or human error. […] A death was classified as NTRu if the cause of death was unknown and there was no available evidence of death related to treatment side effects, metastasis, accident or human error, although death due to treatment side effects cannot be excluded.

[2] = system: HCT116 human colorectal carcinoma xenograft; test: HCT116 xenograft tumor growth delay (TGD) study; type: in vivo, mice
Protocol: Female athymic nude mice (Crl:NU(Ncr)-Foxn1^nu, Charles River) were eight weeks old with a body weight (BW) range of 14.6 to 25.7 grams on Day 1 of the study. The animals were fed ad libitum water (reverse osmosis, 1 ppm Cl), and NIH 31 Modified and Irradiated Lab Diet® consisting of 18.0% crude protein, 5.0% crude fat, and 5.0% crude fiber. The mice were housed on irradiated Enrich-O'Cobs™ Laboratory Animal Bedding in static microisolators on a 12-hour light cycle at 20-22° C. (68-72° F.) and 40-60% humidity.
HCT116 human colon carcinoma cells were cultured in RPMI-1640 medium supplemented with 10% fetal bovine serum, 2 mM glutamine, 100 units/mL penicillin G sodium, 100 μg/mL streptomycin sulfate, and 25 μg/mL gentamicin. The tumor cells were grown in tissue culture flasks in a humidified incubator at 37° C., in an atmosphere of 5% CO2 and 95% air.
The HCT116 cells used for implantation were harvested during exponential growth and resuspended in 50% Matrigel (BD Biosciences): 50% phosphate buffered saline at a concentration of 2.5×10^7 cells/mL. On the day of tumor implant, each test mouse was injected subcutaneously in the right flank with 5×10^6 cells (0.2 mL cell suspension), and tumor growth was monitored as the average size approached the target range of 100 to 150 mm^3. Tumors were measured in two dimensions using calipers, and volume was calculated using the formula: Tumor Volume (mm^3)=(w^2×l)/2 where w=width and l=length, in mm, of the tumor. Tumor weight may be estimated with the assumption that 1 mg is equivalent to 1 mm^3 of tumor volume.
Ten days after tumor implantation, designated as Day 1 of the study, the animals were sorted into nine groups (Groups 1-9) each consisting of fifteen mice and one group (Group 10) consisting of ten mice.
BVD-523 doses were prepared by suspending the required amount of BVD-523 powder in 1% carboxymethyl cellulose (CMC) in deionized water (“Vehicle”). A 10 mg/mL BVD-523 stock was prepared, and was used to dose the 100 mg/kg BVD-523 group. Aliquots of the stock were diluted with the vehicle to a concentration of 5.0 mg/mL, which provided a 50 mg/kg BVD-523 dosage in a dosing volume of 10 mL/kg. The BVD-523 doses were stored at 4° C. for up to one week. The 1% CMC vehicle was used to dose the control group.
Paclitaxel (Lot CP2N10007) was purchased as a dry powder from Phyton Biotech, LLC (Fort Worth, Tex.). A paclitaxel stock solution (30 mg/mL) in 50% ethanol: 50% Cremophor EL was prepared and stored at room temperature protected from light during the dosing period. On each day of dosing, an aliquot of the paclitaxel stock was diluted with 5% dextrose in water (D5W) to yield a 3.0 mg/mL paclitaxel dosing solution in a vehicle consisting of 5% ethanol: 5% Cremophor EL: 90% D5W.
On Day 1 of the study, mice were sorted into nine groups (Group 1-9) each consisting of fifteen mice and one group (Group 10) consisting of ten mice, and dosing was initiated according to the treatment plan summarized in Table 4 below. All doses were given by oral gavage (p.o.) except paclitaxel, which was given i.v. For each agent, the dosing volume of 10 mL/kg (0.2 mL per 20 grams of BW) was scaled to the BW of the individual animal. […] For bid dosing, dosing was initiated in the afternoon of Day 1, so that one dose was given on the first day (“first day 1 dose”).
Group 1 received 1% CMC vehicle p.o. bid to end, and served as the control group for calculation of % TGD. Group 10 received paclitaxel i.v. at 30 mg/kg once every other day (qod) for five doses (qod×5), and served as the positive control for the model.
Groups 4 and 5 received 50 and 100 mg/kg BVD-523, respectively, p.o. bid to end.

[3] = system: HCT116 PIK3CA (+/−) cells; test: Combination proliferation assay (Loewe/Bliss); type: cell-based, human; details: Homo sapiens, HCT-116, read-out: IC50 (single agent, derived from combination assay plates)
Protocol: Test compounds were incubated with the cells for 72 h at 37° C., 5% CO2 in a humidified atmosphere. CellTiter-Glo® reagent (Promega, Madison, Wis.) was added according to manufacturer's instructions and luminescence detected using the BMG FLUOstar plate reader (BMG Labtech, Ortenberg, Germany). The average media only background value was deducted and the data analysed. For the 10×8 combination assays the combination interactions across the dose matrix were determined by the Loewe Additivity and Bliss independence models using ChaliceTM Combination Analysis Software (Horizon Discovery Group, Cambridge, Mass.) as outlined in the user manual (available at chalice.horizondiscovery.com/chalice-portal/documentation/analyzer/home.jsp). Synergy is determined by comparing the experimentally observed level of inhibition at each combination point with the value expected for additivity, which is derived from the single-agent responses along the edges of the matrix. Potential synergistic interactions were identified by displaying the calculated excess inhibition over that predicted as being additive across the dose matrix as a heat map, and by reporting a quantitative 'Synergy Score' based on the Loewe model. The single agent data derived from the combination assay plates were presented as dose-response curves generated in GraphPad Prism (GraphPad Software, La Jolla, Calif.) (plotted using percentage viability relative to DMSO only treated controls). […] (Cbliss is the fractional inhibition that would be expected if the combination of the two drugs were exactly additive). Cbliss values were then subtracted from the experimentally observed fractional inhibition values to give an 'excess over Bliss' value which were plotted as heat maps±SD.

parental HCT116 cells = test: Combination proliferation assay (Loewe/Bliss); type: cell-based; details: Homo sapiens, HCT-116, 2.5% serum, mean of n=4 separate combinations, read-out: IC50 (single agent, derived from combination assay plates)
Protocol: Cells were seeded into triplicate 96-well plates at the densities indicated in Table 11 in McCoy's 5A media containing 2.5% FBS and allowed to adhere overnight prior to addition of test compound or vehicle control. Combinations were tested using either a 10×8 or for the follow-up HCT116 study a 3×1 dose matrix.
Test compounds were incubated with the cells for 72 h at 37° C., 5% CO2 in a humidified atmosphere. CellTiter-Glo® reagent (Promega, Madison, Wis.) was added according to manufacturer's instructions and luminescence detected using the BMG FLUOstar plate reader (BMG Labtech, Ortenberg, Germany). The average media only background value was deducted and the data analysed.
For the 10×8 combination assays the combination interactions across the dose matrix were determined by the Loewe Additivity and Bliss independence models using Chalice™ Combination Analysis Software (Horizon Discovery Group, Cambridge, Mass.) as outlined in the user manual (available at chalice.horizondiscovery.com/chalice-portal/documentation/analyzer/home.jsp). Synergy is determined by comparing the experimentally observed level of inhibition at each combination point with the value expected for additivity, which is derived from the single-agent responses along the edges of the matrix. […]

[4] = Homo sapiens, HCT-116, 72 h, 1% CS-FBS
[5] = Homo sapiens, HCT-116, 72 h, 10% FBS
[6] = Group 1 (vehicle) vs Group 10 (Paclitaxel 30 mg/kg iv qod x 5)
[7] = Group 10: Paclitaxel 30 mg/kg iv qod x 5

Row | SMILES | IC50 (HCT116 PIK3CA (+/−); [4]) | IC50 (HCT116 PIK3CA (+/−); [5]) | IC50 (HCT116 Parental; [4]) | IC50 (HCT116 Parental; [5]) | also measured
1 | Nc1cc(C(F)(F)F)c(-c2cc(N3CCOCC3)nc(N3CCOCC3)n2)cn1 [BKM120] | 1030 nM | 520 nM | 530 nM | 620 nM | 
2 | CS(=O)(=O)N1CCN(Cc2cc3nc(-c4cccc5[nH]ncc45)nc(N4CCOCC4)c3s2)CC1 [GDC-0941, pictilisib] |  |  | 60 nM | 1530 nM | 
3 | CC(C)n1nc(-c2ccc3oc(N)nc3c2)c2c(N)ncnc21 [INK128] | 20 nM | 70 nM | 30 nM | 50 nM | 
4 | COc1ccc(-c2cc3c(C)nc(N)nc3n([C@H]3CC[C@H](OCCO)CC3)c2=O)cn1 [PF-04691502] |  |  |  |  | IC50 (HCT116 PIK3CA (+/−); 1% CS-FBS): 1540 nM; IC50 (HCT116 PIK3CA (+/−); 10% FBS): 420 nM; IC50 (HCT116 Parental; 1% CS-FBS): 70 nM; IC50 (HCT116 Parental; 10% FBS): 290 nM
5 | CC(=O)O[C@H]1C(=O)[C@@]2(C)[C@H]([C@H](OC(=O)c3ccccc3)[C@]3(O)C[C@H](OC(=O)[C@H](O)[C@@H](NC(=O)c4ccccc4)c4ccccc4)C(C)=C1C3(C)C)[C@]1(OC(C)=O)CO[C@@H]1C[C@@H]2O [Paclitaxel, reference compound] | 3 nM | 2 nM | 3 nM | 2 nM | Deaths NTR [1]: 0; Deaths TR [1]: 0; Are survival curves diff.? [2, 6]: Yes; Logrank test Chi square [2, 6]: 24.03; % TGD [2, 7]: 38%; MTV (n): number of animals on D 45 (45-day survivors) [2, 7]: (10); MTV D 45 (median tumor volume) [2, 7]: 688 mm^3; Median TTE [2, 7]: 45.0 days; Regressions CR [2, 7]: 0; Regressions PR [2, 7]: 8/10 and 8; Regressions TFS [2, 7]: 0; T − C [2, 7]: 12.3 days
6 | O=C(Nc1ccc2[nH]nc(-c3ccncc3)c2c1)[C@@H]1CCN(CC(=O)N2CCN(c3ccc(-c4ncccn4)cc3)CC2)C1 [SCH772984] | 10 nM | 80 nM | 30 nM | 140 nM | IC50 [3]: 30 nM; IC50 (parental HCT116 cells): 210 nM
